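Interpolation was linear, between the two tested concentrations surrounding the appropriate level; five concentrations were tested over 48 hours in 96-well plates. TGI: total growth inhibition.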
Key:
Experiment in all cases: NCI tumour cell line growth inhibition, 48 h
[1] = test system: 786-0 renal
[2] = test system: A549 NSCLC
[3] = test system: BT-549 breast
[4] = test system: CAKI-1 renal
[5] = test system: COLO 205 colon
[6] = test system: DU-145 prostate
[7] = test system: EKVX NSCLC
[8] = test system: HCC-2998 colon
[9] = test system: HCT-116 colon
[10] = test system: HCT-15 colon
[11] = test system: HOP-62 NSCLC
[12] = test system: HOP-92 NSCLC
[13] = test system: HS 578T breast
[14] = test system: HT29 colon
[15] = test system: IGROV1 ovarian
[16] = test system: K-562 leukemia
[17] = test system: KM12 colon
[18] = test system: M14 melanoma
[19] = test system: MALME-3M melanoma
[20] = test system: MCF7 breast
[21] = test system: MDA-MB-231 breast
[22] = test system: MDA-MB-435
[23] = test system: MDA-N
[24] = test system: MOLT-4 leukemia
[25] = test system: NCI-H226 lung
[26] = test system: NCI-H23 lung
[27] = test system: NCI-H460 lung
[28] = test system: NCI-H522 lung
[29] = test system: NCI/ADR-RES ovarian
[30] = test system: OVCAR-3 ovarian
[31] = test system: OVCAR-5 ovarian
[32] = test system: OVCAR-8 ovarian
[33] = test system: PC-3 prostate
[34] = test system: RPMI-8226 leukemia
[35] = test system: RXF 393 renal
[36] = test system: SF-268 CNS
[37] = test system: SF-295 CNS
[38] = test system: SF-539 CNS
[39] = test system: SK-MEL-2 melanoma
[40] = test system: SK-MEL-28 melanoma
[41] = test system: SK-MEL-5 melanoma
[42] = test system: SK-OV-3 ovarian
[43] = test system: SN12C renal
[44] = test system: SNB-19 CNS
[45] = test system: SR leukemia
[46] = test system: SW-620 colon
[47] = test system: T-47D breast
[48] = test system: TK-10 renal
[49] = test system: U251 CNS
[50] = test system: UACC-257 melanoma
[51] = test system: UACC-62 melanoma
[52] = test system: UO-31 renal
[53] = test system: A498 renal
[54] = test system: ACHN renal
[55] = test system: LOX IMVI melanoma
[56] = test system: OVCAR-4 ovarian
[57] = test system: SNB-75 CNS

Measured: TGI

S=C1N(/N=C/c2c3ccccc3cc3ccccc23)C(=Nc2ccccc2)C(=Nc2ccccc2)N1c1ccccc1
not listed: [53] | [54] | [55] | [56] | [57]
> 100 µM: all other assays above

O=C(O)C1C2CCC(O2)C1C(=O)Nc1cccc2cccnc12 (stereo unspecified)
not listed: [5] | [12] | [24] | [25] | [32] | [36] | [38] | [41]
> 100 µM: all other assays above
